Measured values taken from the supplement of paper PMC13207355.
Where a name gives a salt, the structure may show the parent alone.

Experiments:
Conditions in all cases: exposure time: 72 h
[1] = test system: FT3469 (normal neural stem cell line); assay: phenotypic distance (Euclidean, principal components) from DMSO controls (arbitrary units); higher = stronger morphological change
[2] = test system: E28 (patient-derived glioblastoma stem cells of classical subtype); assay: as above
[3] = test system: E13 (patient-derived glioblastoma stem cells of classical subtype); assay: as above
[4] = test system: E34 (patient-derived glioblastoma stem cells of proneural subtype); assay: as above
[5] = test system: E57 (patient-derived glioblastoma stem cells of mesenchymal subtype); assay: as above
[6] = test system: E21 (patient-derived glioblastoma stem cells of mesenchymal subtype); assay: as above
[7] = test system: E31 (patient-derived glioblastoma stem cells of proneural subtype); assay: as above
[8] = test system: FT3469; assay: surviving fraction (nuclei count normalised to DMSO); higher = more cells surviving (less toxic)
[9] = test system: E28; assay: as above
[10] = test system: E13; assay: as above
[11] = test system: E34; assay: as above
[12] = test system: E57; assay: as above
[13] = test system: E21; assay: as above
[14] = test system: E31; assay: as above
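For phenotypic distance (Euclidean, principal components) from DMSO controls in this document: cell Painting imaging in 384-well plates, CellProfiler features reduced to at least 20 principal components, Euclidean distance versus same-plate DMSO vehicle wells (0.1% v/v), median over six images per well.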
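For surviving fraction (nuclei count normalised to DMSO) in this document: nuclei counted by high-content imaging of Hoechst-stained cells in laminin-coated 384-well plates, relative to 0.1% DMSO vehicle wells, with staurosporine as cell-death control.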

CCC[C@@H]1C[C@@H](C(=O)N[C@@H]([C@H]2O[C@H](SC)[C@H](O)[C@@H](O)[C@H]2O)[C@@H](C)O)N(C)C1 [Lincomycin hydrochloride]
Conditions	phenotypic distance	surviving fraction
[1], 4.1 nM	0.783	–
[1], 12.3 nM	0.977	–
[1], 37 nM	0.592	–
[1], 111.1 nM	0.704	–
[1], 333.3 nM	0.658	–
[1], 1000 nM	1.03	–
[1], 3000 nM	0.496	–
[2], 4.1 nM	0.634	–
[2], 12.3 nM	0.929	–
[2], 37 nM	1.11	–
[2], 111.1 nM	0.703	–
[2], 333.3 nM	0.726	–
[2], 1000 nM	0.598	–
[2], 3000 nM	0.576	–
[3], 4.1 nM	0.648	–
[3], 12.3 nM	0.534	–
[3], 37 nM	0.423	–
[3], 111.1 nM	0.641	–
[3], 333.3 nM	0.442	–
[3], 1000 nM	0.768	–
[3], 3000 nM	0.427	–
[4], 4.1 nM	0.57	–
[4], 12.3 nM	0.706	–
[4], 37 nM	0.876	–
[4], 111.1 nM	1.02	–
[4], 333.3 nM	0.802	–
[4], 1000 nM	0.879	–
[4], 3000 nM	0.674	–
[5], 4.1 nM	0.854	–
[5], 12.3 nM	1.06	–
[5], 37 nM	0.755	–
[5], 111.1 nM	0.617	–
[5], 333.3 nM	0.478	–
[5], 1000 nM	0.463	–
[5], 3000 nM	0.394	–
[6], 4.1 nM	0.423	–
[6], 12.3 nM	0.813	–
[6], 37 nM	0.629	–
[6], 111.1 nM	0.635	–
[6], 333.3 nM	0.696	–
[6], 1000 nM	0.667	–
[6], 3000 nM	0.478	–
[7], 4.1 nM	0.488	–
[7], 12.3 nM	0.574	–
[7], 37 nM	0.621	–
[7], 111.1 nM	0.44	–
[7], 333.3 nM	0.659	–
[7], 1000 nM	0.74	–
[7], 3000 nM	0.788	–
[8], 4.1 nM	–	0.948
[8], 12.3 nM	–	0.951
[8], 37 nM	–	0.828
[8], 111.1 nM	–	1.15
[8], 333.3 nM	–	1.1
[8], 1000 nM	–	1.08
[8], 3000 nM	–	1.08
[9], 4.1 nM	–	1.05
[9], 12.3 nM	–	1.04
[9], 37 nM	–	1.08
[9], 111.1 nM	–	0.956
[9], 333.3 nM	–	1.12
[9], 1000 nM	–	1.12
[9], 3000 nM	–	1.03
[10], 4.1 nM	–	0.937
[10], 12.3 nM	–	0.912
[10], 37 nM	–	0.891
[10], 111.1 nM	–	0.967
[10], 333.3 nM	–	1.07
[10], 1000 nM	–	1.1
[10], 3000 nM	–	0.894
[11], 4.1 nM	–	0.988
[11], 12.3 nM	–	0.937
[11], 37 nM	–	0.909
[11], 111.1 nM	–	1.09
[11], 333.3 nM	–	1.11
[11], 1000 nM	–	1.25
[11], 3000 nM	–	0.902
[12], 4.1 nM	–	1.09
[12], 12.3 nM	–	1.08
[12], 37 nM	–	0.957
[12], 111.1 nM	–	1.07
[12], 333.3 nM	–	0.959
[12], 1000 nM	–	0.997
[12], 3000 nM	–	0.976
[13], 4.1 nM	–	0.94
[13], 12.3 nM	–	0.873
[13], 37 nM	–	0.963
[13], 111.1 nM	–	0.936
[13], 333.3 nM	–	0.972
[13], 1000 nM	–	0.984
[13], 3000 nM	–	0.94
[14], 4.1 nM	–	1.03
[14], 12.3 nM	–	0.994
[14], 37 nM	–	1.03
[14], 111.1 nM	–	1.15
[14], 333.3 nM	–	1.1
[14], 1000 nM	–	1.21
[14], 3000 nM	–	0.936

COc1ccc2c(c1)CC[C@@H]1[C@@H]2CC[C@]2(C)[C@@H](NCCCCCCN3C(=O)CCC3=O)CC[C@@H]12
Conditions	phenotypic distance	surviving fraction
[1], 4.1 nM	0.686	–
[1], 12.3 nM	0.245	–
[1], 37 nM	0.58	–
[1], 111.1 nM	0.496	–
[1], 333.3 nM	0.408	–
[1], 1000 nM	0.646	–
[1], 3000 nM	0.711	–
[2], 4.1 nM	0.61	–
[2], 12.3 nM	0.49	–
[2], 37 nM	0.46	–
[2], 111.1 nM	0.724	–
[2], 333.3 nM	0.645	–
[2], 1000 nM	0.805	–
[2], 3000 nM	2.44	–
[3], 4.1 nM	1.07	–
[3], 12.3 nM	0.714	–
[3], 37 nM	0.93	–
[3], 111.1 nM	1.11	–
[3], 333.3 nM	1.31	–
[3], 1000 nM	2.29	–
[3], 3000 nM	3.72	–
[4], 4.1 nM	1.13	–
[4], 12.3 nM	0.657	–
[4], 37 nM	0.637	–
[4], 111.1 nM	0.671	–
[4], 333.3 nM	0.968	–
[4], 1000 nM	1.06	–
[4], 3000 nM	0.95	–
[5], 4.1 nM	3.52	–
[5], 12.3 nM	0.302	–
[5], 37 nM	0.424	–
[5], 111.1 nM	0.621	–
[5], 333.3 nM	1.22	–
[5], 1000 nM	1.78	–
[5], 3000 nM	2.68	–
[6], 4.1 nM	0.642	–
[6], 12.3 nM	0.74	–
[6], 37 nM	0.741	–
[6], 111.1 nM	0.893	–
[6], 333.3 nM	0.934	–
[6], 1000 nM	1.42	–
[6], 3000 nM	4.65	–
[7], 4.1 nM	0.697	–
[7], 12.3 nM	0.31	–
[7], 37 nM	0.566	–
[7], 111.1 nM	0.735	–
[7], 333.3 nM	1.61	–
[7], 1000 nM	2.54	–
[7], 3000 nM	6.23	–
[8], 4.1 nM	–	0.984
[8], 12.3 nM	–	1.11
[8], 37 nM	–	1.03
[8], 111.1 nM	–	1.11
[8], 333.3 nM	–	1.06
[8], 1000 nM	–	0.922
[8], 3000 nM	–	0.983
[9], 4.1 nM	–	1.09
[9], 12.3 nM	–	1.03
[9], 37 nM	–	1.03
[9], 111.1 nM	–	1.09
[9], 333.3 nM	–	1.1
[9], 1000 nM	–	1.01
[9], 3000 nM	–	0.973
[10], 4.1 nM	–	0.826
[10], 12.3 nM	–	0.95
[10], 37 nM	–	0.876
[10], 111.1 nM	–	0.929
[10], 333.3 nM	–	0.981
[10], 1000 nM	–	0.804
[10], 3000 nM	–	0.52
[11], 4.1 nM	–	0.876
[11], 12.3 nM	–	0.901
[11], 37 nM	–	1.13
[11], 111.1 nM	–	0.957
[11], 333.3 nM	–	0.939
[11], 1000 nM	–	0.979
[11], 3000 nM	–	0.986
[12], 4.1 nM	–	1.11
[12], 12.3 nM	–	1.04
[12], 37 nM	–	1.13
[12], 111.1 nM	–	1.13
[12], 333.3 nM	–	1.17
[12], 1000 nM	–	1.11
[12], 3000 nM	–	0.936
[13], 4.1 nM	–	1.03
[13], 12.3 nM	–	0.961
[13], 37 nM	–	0.951
[13], 111.1 nM	–	1.13
[13], 333.3 nM	–	1.06
[13], 1000 nM	–	0.867
[13], 3000 nM	–	0.645
[14], 4.1 nM	–	0.965
[14], 12.3 nM	–	1.14
[14], 37 nM	–	0.985
[14], 111.1 nM	–	1.05
[14], 333.3 nM	–	1.06
[14], 1000 nM	–	0.962
[14], 3000 nM	–	0.624
